Data on 139 molecules can be found in a melting point compilation (Tetko et al.).

Molecules are shown by their SMILES.

The conditions of this series: a range is the spread between reports.

`Nc1ccc(Cl)cc1Cl` displayed a melting point of 61 to 63.5 °C. Then `OCC(F)(F)F`, with -44 to -43.5 °C; and `BrC(Br)Br`, with 8 to 9 °C.

On to `Fc1ccc(N=C=S)cc1`, for which the melting point was 26 to 27 °C.

With `CN(C)c1ccc(/N=N/c2ccccc2C(=O)O)cc1`, the melting point was in the range of 180 to 183 °C.

With `OCc1ccc(Cl)cc1Cl`, the melting point lay within 59 to 59.5 °C.

`c1cc2cccc3c4cccc5cccc(c(c1)c23)c54` yielded a melting point of 274 to 278 °C. For `O=Cc1ccc(-c2ccccc2)cc1`, the melting point was in the range of 59 to 60 °C. Regarding `O=CNc1ccccc1`, the melting point lay in the range of 46 to 47 °C.

`Ic1cccc(I)c1` registered a melting point of 36 to 40.4 °C. `CCCCP(CCCC)CCCC` yielded a melting point of -65 to -60 °C.

For `O=C(O)COc1ccccc1Cl`, the melting point was in the range of 148 to 150 °C. Molecule `Cc1cccc(C#N)c1` had a melting point of -27 to -23 °C. `c1ccc2c(c1)ccc1ccccc12` had a melting point of 99 to 101 °C. Take `CC1=CCCCC1`: the melting point was -120 °C.

`Nc1cccc2cnccc12`: the melting point was 128 to 129 °C. The molecule `COC(=O)c1cc(OC)cc(OC)c1` had a melting point of 42 to 43 °C.

In turn, `CC(C)(C)OO` registered a melting point of -8 to -3 °C. As for `Nc1cc(Cl)cc(Cl)c1`, the figure is 51 to 53 °C. As for `O=C(O)c1ccc([N+](=O)[O-])cc1Cl`, the figure is 139 to 142 °C; as for `Oc1ccc(Br)cc1Br`, 37 to 40 °C.

`O=C(O)c1ccc([N+](=O)[O-])c([N+](=O)[O-])c1` registered a melting point of 165 to 166 °C. The molecule `c1ccc(-c2cccc(-c3ccccn3)n2)nc1` came in with a melting point of 90 to 91 °C.

`CC(C)CC(C)C` returned a melting point of -123 to -119 °C. Then `Oc1ccccn1`, with 107 to 108 °C; and `OC1CCCC1`, with -20 to -16.2 °C. As for `CCCCCCI`, the figure is -75 to -74.2 °C; as for `O=C(O)c1cccc(F)c1`, 123 to 124 °C; as for `CCCCCCCCCCCCCCCCCCC`, 32 to 33 °C.

Turning to `O=C(O)C(Br)(Br)Br`, the melting point is 132 °C. Then `CCCCCCCCCC(=O)O`, with 31 to 32 °C. `CCc1nc(N)nc(N)c1-c1ccc(Cl)cc1` gave a melting point of 233 to 234 °C. As for `CCCC(C)(C)O`, the figure is -103 to -102 °C; as for `CC(C)(Oc1ccc(Cl)cc1)C(=O)O`, 118 to 120 °C.

The molecule `CC(C)c1ccccc1Cl` yielded a melting point of -74.4 to -74 °C.

Molecule `CCCCCCCCCCCC[N+](C)(C)[O-]` registered a melting point of 130 to 132 °C.

For `N#CC(c1ccccc1)c1ccccc1`, the melting point lay within 74 to 74.3 °C. Then `CCOC(=O)c1ccc([N+](=O)[O-])cc1`, with 57 to 58 °C. As for `CC(=O)Oc1cccc2ccccc12`, the figure is 44.5 to 45 °C; as for `O=c1[nH]c(=O)c2nccnc2[nH]1`, 348 °C; as for `CCc1cc(C)cc(CC)c1`, -74.1 to -74 °C. `COc1cc(OC)c(OC)cc1C=O` yielded a melting point of 113 to 114 °C.

On to `Oc1ccc(-c2ccc(O)cc2)cc1`, for which the melting point was 278 to 283 °C. Then `O=[N+]([O-])c1ccc(Oc2ccc(Cl)cc2Cl)cc1`, with 70 to 70.5 °C; and `O=C(NCc1ccccc1)c1ccccc1`, with 105 to 106 °C. Then `O=C(O)c1ccccc1Br`, with 146 to 150 °C; and `Cc1n[nH]cc1Br`, with 75 to 76.5 °C. Then `COc1ccc(Br)c(OC)c1`, with 25 to 26 °C; and `CCNc1ccc([N+](=O)[O-])cc1`, with 96 to 97 °C; and `Nc1nc(N)nc(-c2ccccc2)n1`, with 226 to 227 °C.

The molecule `CCCCCCCCCCCCCCCC(=O)OC(C)C` returned a melting point of 12 to 13.5 °C.

As for `CC(C)CC(C)(C)C`, the melting point was -107 °C. The molecule `CCC(=O)c1ccc(O)cc1O` registered a melting point of 99 to 100 °C. On to `CCCCCCCCCl`, for which the melting point is -58 to -57.8 °C. As for `O=C(c1ccccc1)c1ccccc1C(F)(F)F`, the figure is 60 to 61 °C; as for `Sc1ncc[nH]1`, 225 to 230 °C; as for `O=C(c1ccc(Cl)cc1)c1ccccc1Cl`, 65 to 67 °C. On to `CNC(=O)NC(C)=O`, for which the melting point lay in the range of 178 to 180 °C.

The molecule `O=[N+]([O-])c1cc(S(=O)(=O)c2ccc(F)c([N+](=O)[O-])c2)ccc1F` showed a melting point of 194 °C. `CCCCCCCCN` came in with a melting point of -1 to 0 °C.

`O=C(O)c1ccc([N+](=O)[O-])c(O)c1`: the melting point lay in the range of 230 to 234 °C. Then `CCC(C)C(C)(C)CC` (centres undefined), with -101 °C; and `CCOC=C(C#N)C#N`, with 65 to 66 °C; and `COc1ccc([N+](=O)[O-])cc1N`, with 117 to 118 °C. Then `Clc1cccc(Cl)c1Br`, with 61 to 66 °C; and `Nc1ccc(C2CCCCC2)cc1`, with 53 to 54.5 °C. Then `COc1ccc2c3c1O[C@H]1[C@@H](O)C=C[C@H]4[C@@H](C2)N(C)CC[C@@]341`, with 155 to 158 °C. Take `O=C(Cl)c1ccco1`: the melting point is -2 to -1 °C. `CCCCCCCCCCCBr` had a melting point of -10 to -9 °C. Then `C=CC(C)CC` (centres undefined), with -154 to -153 °C.

Molecule `O=C(c1ccccc1)c1ccncc1` displayed a melting point of 70 to 72 °C. `CC=CC(C)CC` (centres undefined) gave a melting point of -126 °C. As for `CC(=O)OC(C)C`, the figure is -73.4 to -73 °C; as for `CCC(C)(CC)CC`, -91 to -90.9 °C; as for `O=C(O)CC(O)C(=O)O` (centres undefined), 130 to 132 °C.

The molecule `CC(=O)c1ccco1` displayed a melting point of 29 to 33 °C. Then `BrCCCCCCCCBr`, with 15.5 to 16 °C. Molecule `CCCCCCN` showed a melting point of -23 to -19 °C.

The molecule `COP(N)(=O)SC` (centres undefined) came in with a melting point of 45 to 46 °C.

Take `CC1(C)NC(=O)NC1=O`: the melting point was in the range of 176 to 178 °C. Then `O=C1CCOc2ccccc21`, with 36.5 to 38 °C; and `Cc1cccnc1`, with -18.1 to -18 °C. The molecule `Clc1ccccn1` came in with a melting point of -46.5 to -46 °C. Regarding `C=CC(N)=O`, the melting point lay in the range of 84 to 84.5 °C.

In turn, `CC(C)(C)C(O)C(Oc1ccc(Cl)cc1)n1cncn1` (centres undefined) came in with a melting point of 134 to 138 °C. For `C=CCC(C)(C)C`, the melting point is -137 °C. In turn, `O=C(C(=O)c1ccccc1)c1ccccc1` displayed a melting point of 94.5 to 95 °C. Then `O=C1CC[C@@H](C(=O)O)N1`, with 160 to 162 °C. Then `O=S(=O)(F)F`, with -136 °C. As to `Cc1ccc(C)c(C)c1`, the melting point was -44 to -43.8 °C.

The molecule `CCCCCCCCOc1ccc(C(=O)O)cc1` returned a melting point of 101 to 103 °C. Then `Cc1ccc(C(=O)O)cc1C`, with 165 to 166 °C. For the molecule `C=CC`, the melting point was -185 °C.

In the case of `CC(=O)C(C)=O`, the melting point is -3 to -1.2 °C. The molecule `ClC(Cl)c1ccccc1` came in with a melting point of -17 to -16 °C. As for `CCBr`, the figure is -119 °C. Then `c1ccoc1`, with -85.6 to -85 °C; and `ClC(c1ccccc1)(c1ccccc1)c1ccccc1`, with 112 to 114 °C. `NCCCCN` had a melting point of 27 to 27.5 °C. Then `CC(=O)c1ccc(OCC(=O)O)cc1`, with 173 to 176 °C. As for `O=Cc1ccc(O)c(O)c1`, the figure is 153 to 155 °C; as for `CN(C)C(=O)C(c1ccccc1)c1ccccc1`, 134 to 135 °C; as for `Sc1nc2ccccc2s1`, 179 to 181 °C. Then `CCCCCCCCCCl`, with -39.4 to -39 °C; and `Cc1ccc(N(CC2=NCCN2)c2cccc(O)c2)cc1`, with 174 to 175 °C; and `Clc1cc(Cl)c(-c2ccccc2)cc1Cl`, with 76 to 78 °C. In turn, `CCCCCCCCCCCl` registered a melting point of -31.3 to -31 °C. The molecule `c1ccc2c(c1)CCc1ccccc1-2` returned a melting point of 34 to 34.5 °C. As for `CC(=O)OC(OC(C)=O)c1ccc([N+](=O)[O-])o1`, the figure is 90 to 91 °C.

As for `c1ccc(CN(Cc2ccccc2)c2ccccc2)cc1`, the melting point fell in the range of 69 to 70 °C.

The molecule `CC1CCCC1(C)C` (centres undefined) showed a melting point of -22 to -21.6 °C. As for `COP(=S)(OC)Oc1ccc([N+](=O)[O-])cc1`, the figure is 35.5 to 36 °C; as for `NC(N)=NC(=O)c1nc(Cl)c(N)nc1N`, 240 to 241 °C.

`Cc1cccc(Cl)c1Cl` had a melting point of 4 to 6 °C. For `Cn1c(=O)ccc2ccccc21`, the melting point was 74 to 75 °C. As for `CCCOc1ccccc1`, the figure is -28 to -27 °C. Molecule `CC(=O)Nc1cccc([N+](=O)[O-])c1` showed a melting point of 152 to 155 °C. Then `COC(=O)c1cccc(O)c1`, with 71 to 74 °C.

In turn, `O=C(OC(=O)C(F)(F)F)C(F)(F)F` showed a melting point of -65 to -63 °C.

`C1CSCCS1` gave a melting point of 111 to 112 °C. Then `CCC(C)(C)CC`, with -135 to -134 °C; and `Cc1ccc(N=C=O)cc1N=C=O`, with 20 to 21 °C.

`O=C1c2ccccc2C(=O)c2c(Cl)cccc21` yielded a melting point of 159 to 163 °C. Then `CNCCO`, with -5 to -4.5 °C; and `O=c1[nH]c2ccccc2n1CCCN1CCC(n2c(=O)[nH]c3cc(Cl)ccc32)CC1`, with 238 to 242 °C. Then `CNc1ccccc1[N+](=O)[O-]`, with 35 to 38 °C. `CC(=O)OCCc1ccccc1` yielded a melting point of -31.1 to -31 °C. Take `NC(=O)c1cccs1`: the melting point was in the range of 181 to 182 °C. As for `COc1ccc(OC)c(C=O)c1`, the figure is 49 to 52 °C; as for `CCOC(=O)c1cccc([N+](=O)[O-])c1`, 42 to 47 °C.

In turn, `CCC#CCCC` yielded a melting point of -131 to -130 °C.

Regarding `Cc1ccc(C)c(C(=O)O)c1`, the melting point is 132 to 134 °C.

`O=C(CCC(=O)OCc1ccccc1)OCc1ccccc1` displayed a melting point of 45 to 49.5 °C. For `OCC(O)CO`, the melting point lay in the range of 17.8 to 18.2 °C. Then `O=C(O)COc1ccc(Cl)cc1`, with 159 to 164 °C; and `C=Cc1ccc(O)cc1`, with 73 to 73.5 °C.

The molecule `CCCCS(=O)CCCC` returned a melting point of 32.6 to 33 °C.

In the case of `O=C1Nc2ccccc2C1=O`, the melting point is 200 to 203 °C. For `COc1ccc(Cl)cc1Cl`, the melting point was in the range of 26 to 28.5 °C.
